Laboratory results as given in US9744142B2, “Formulations of volatile anesthetics and methods of use for reducing inflammation” (Board of Regents, The University of Texas Systems, priority 2009, dated 2017).

Assay: Isoflurane remaining in uncapped vials over time, determined by weighing (volatility)
Assay type: physicochemical
Settings: uncapped vial
Method: In the Examples that follow, the stability of isoflurane in the described compositions was determined in two ways. First, the compositions were examined for the presence of phase separation at the macroscopic level. Secondly, isoflurane content of the compositions was determined by weighing the remaining isoflurane in the composition when they were left uncapped over time. Briefly, glass vials were filled with 5-10 ml of the composition vehicle and then weighed; one of them received only vehicle (i.e., no isoflurane) and served as control. The other vials received varying amounts of isoflurane. They were left uncapped in the hood. Over time, the vials were weighed to see if the isoflurane stayed in the composition or had evaporated. The amount evaporated over time in the vehicle control was subtracted from that in the isoflurane-containing composition.
The pure form of isoflurane is a volatile anesthetic. In order to assess the volatility of isoflurane, two vials received the indicated amounts of pure form isoflurane. The vials were placed in the chemical fume hood and left uncapped. The vials were weighed at the indicated times to determine the amount of evaporated isoflurane. As it is shown in the table below 0.7893 g isoflurane was evaporated within 3 hours, while 3.4825 g isoflurane took approximately 8 hrs to evaporate completely. These amounts of isoflurane are similar to the amounts of isoflurane that were used to prepare the isoflurane compositions in the Examples that follow.

- time until isoflurane was evaporated (pure isoflurane 0.7893 g): ≤ 3 h
- time to evaporate completely (pure isoflurane 3.4825 g): approximately 8 hrs
- 7 h (pure isoflurane 3.4825 g, 7 h, remaining iso as in the neighbouring columns): 13
- 8 h (pure isoflurane 3.4825 g, 8 h, remaining iso as in the neighbouring columns): 3
SMILES: FC(F)OC(Cl)C(F)(F)F (stereo not shown) [isoflurane]
